The text below walks through data of ChEMBL document CHEMBL3301448, “MMV Malaria Box screening against Toxoplasma gondii and Entamoeba histolytica”.

Assay [1] relates to Entamoeba histolytica. Put plainly: MMV: Primary screening was performed with each compound at a 30 uM final concentration and in triplicate in sealed 96-well polystyrene microtiter plates. Parasite inocula (100 ul) comprising 20000 parasites/ml were added to each well and grown at 37 degrees C in a humidified atmosphere of 5% CO2 for 72 h. Positive controls consisted of metronidazole at 1 mg/ml. The growth of E. histolytica trophozoites in each well was determined microscopically by measuring the diameters of the confluent cells in drug-containing wells relative to those in the nega- tive-control wells. The class given is functional, organism-based.

Assay [2] concerns Toxoplasma gondii. Put plainly: MMV: A total of 100ul of inoculum was added to each well (parasite/cell ratio, ~10:1; final volume, 200 ul). Six hours after inoculation, nonadherent parasites were removed, and 100 ul of complete DMEM (1% penicillin-streptomycin, 3% FBS) supplemented with inhibitors at different concentrations (2-fold serial dilutions starting from 30 uM) was added to all except the negative-control wells. Positive controls, consisting of pyrimethamine (PYR) and sulfadiazine (SDZ) (20-mg/ml stocks in DMSO), were tested at a 2mg/ml final concentration. Each test was performed in triplicate. The class given is functional, organism-based. Particulars: 6 h.

In the case of `c1ccc2cc3c(Nc4ccc(N5CCOCC5)cc4)ccnc3cc2c1`, the results for the half-maximal inhibitory concentration (IC50) in assay [1] and in assay [2] were 15.6 µM and greater than 30 µM, respectively.

As for `CCOc1c(Cl)cc(CNCC(O)c2ccccc2)cc1OC` (stereo not given), the IC50 in assay [1] and in assay [2] was greater than 30 µM in each case.

Regarding `CC(O)(c1ccc(Cl)cc1)C(CN1CCCCC1)c1ccccc1` (stereo not given), the 50% inhibitory concentration (IC50) in assay [1] and in assay [2] was greater than 30 µM throughout.

With `OC(CNC1CCCC1)Cn1c2ccccc2c2ccccc21` (stereo not given), the IC50 in assay [1] and in assay [2] was greater than 30 µM each time.

As to `CN1CCN(c2ncnc3c2[nH]c2ccc(Cl)cc23)CC1`, the 50% inhibitory concentration (IC50) in assay [1] and in assay [2] was greater than 30 µM in each case.

On to `COc1ccc(C(=O)NC(c2ccccc2Cl)c2cc(Cl)c3cccnc3c2O)cc1` (stereo not given), for which the 50% inhibitory concentration (IC50) in assay [1] and in assay [2] was greater than 30 µM each time.

In the case of `O=C(NC1CCCCC1)C(c1cccs1)N(CCc1ccccc1)C(=O)c1ccco1` (stereo not given), the IC50 in assay [1] and in assay [2] was greater than 30 µM throughout.

For the compound `CCOC(=O)c1cnc2ccc(CC)cc2c1O`, the IC50 in assay [1] and in assay [2] was greater than 30 µM in each case.

On to `Cc1ccc(-c2cc(C(=O)Nc3ccc(S(=O)(=O)N4CCCCC4)cc3)[nH]n2)c(O)c1`, for which the IC50 in assay [1] and in assay [2] was greater than 30 µM in each case.

As for `COCCNCC(O)Cn1c2ccc(Cl)cc2c2cc(Cl)ccc21` (stereo not given), the 50% inhibitory concentration (IC50) in assay [1] and in assay [2] was greater than 30 µM each time.

Consider `COCCn1c(C)nc2ccccc2c1=O`, for which the IC50 in assay [1] and in assay [2] was greater than 30 µM throughout.

Take `COc1ccc(-c2cn3c(C(=O)Nc4ccccc4Cl)c(-c4ccccc4)c4c3n2CCCC4)cc1`: the half-maximal inhibitory concentration (IC50) in assay [1] and in assay [2] was greater than 30 µM each time.

Regarding `O=C(Nc1ccc(-c2nc3cc(NC(=O)c4ccc(Cl)cc4)ccc3[nH]2)cc1)c1ccc(Cl)cc1`, the IC50 in assay [1] and in assay [2] was greater than 30 µM throughout.

For the compound `COc1ccc(Nc2cc(C)nc(NCc3ccccc3)n2)cc1`, the half-inhibitory concentration (IC50) in assay [1] and in assay [2] was greater than 30 µM throughout.

For the compound `O=C(Nc1ccsc1C(=O)NC1CCCCC1)c1ccc(F)cc1`, the 50% inhibitory concentration (IC50) in assay [1] and in assay [2] was greater than 30 µM each time.

As to `O=C(Nc1nc(-c2ccccn2)cs1)c1ccccc1Br`, the IC50 in assay [1] and in assay [2] was greater than 30 µM each time.

As to `COCCNC(=O)c1ccc(OC2CCN(Cc3ccc(F)c(F)c3)CC2)c(Cl)c1`, the IC50 in assay [1] and in assay [2] was greater than 30 µM throughout.

Consider `Cc1nc2ccccc2c(O)c1CC=C(Cl)Cl`, for which the IC50 in assay [1] and in assay [2] was greater than 30 µM each time.

`CCOC(=O)C1CCN(C(=O)CN2C(=O)c3ccccc3C2c2c[nH]c3ccccc23)CC1` (stereo not given): the concentration for half-maximal inhibition (IC50) in assay [1] and in assay [2] was greater than 30 µM each time.

`COc1ccc(Nc2nc(NCc3ccccc3)c3ccccc3n2)cc1`: the IC50 in assay [1] and in assay [2] was greater than 30 µM in each case.

Turning to `Cc1cccc(N2C(=O)C3C(C2=O)C2(c4ccccc4)C(=O)C3(c3ccccc3)C(c3ccc4c(c3)OCO4)=C2c2ccc3c(c2)OCO3)c1` (stereo not given), the concentration for half-maximal inhibition (IC50) in assay [1] and in assay [2] was greater than 30 µM throughout.

In the case of `CCOc1cc(Br)c(C(C)NC(=O)c2cccc(OC)c2)cc1OCC` (stereo not given), the IC50 in assay [1] and in assay [2] was greater than 30 µM throughout.

Consider `CC(C)CCNCC(O)Cn1c2ccccc2c2ccccc21` (stereo not given), for which the IC50 in assay [1] and in assay [2] was greater than 30 µM in each case.

Regarding `OC1=C2C(=Nc3ccccc3SC2c2ccc(Br)cc2)c2ccccc21` (stereo not given), the IC50 in assay [1] and in assay [2] was greater than 30 µM throughout.

On to `CCOc1ccc(CCNC(=O)c2cccs2)cc1OCC`, for which the IC50 in assay [1] and in assay [2] was greater than 30 µM each time.

Take `CCOc1ccc(N2C(N)=NC(N)=NC2(C)C)cc1`: the IC50 in assay [1] and in assay [2] was greater than 30 µM each time.

As for `COc1ccc2nc(C)cc(Nc3ccc(Cl)cc3)c2c1`, the IC50 in assay [1] and in assay [2] was greater than 30 µM in each case.

For the compound `CC(=O)NCCc1nc2ccccc2n1Cc1ccc(C(C)C)cc1`, the IC50 in assay [1] and in assay [2] was greater than 30 µM each time.

With `COc1ccc(CNC2CCN(c3ccc(NC(=O)c4cccc(Cl)c4)cc3)CC2)cc1OC`, the concentration for half-maximal inhibition (IC50) in assay [1] and in assay [2] was greater than 30 µM throughout.

On to `COc1ccc(N2CCN(C(CNC(=O)CC(C)(C)C)c3ccc4c(c3)OCO4)CC2)cc1` (stereo not given), for which the IC50 in assay [1] and in assay [2] was greater than 30 µM each time.

In the case of `O=C(NCC(c1ccsc1)N1CCCCCC1)c1ccc(C(F)(F)F)cc1` (stereo not given), the concentration for half-maximal inhibition (IC50) in assay [1] and in assay [2] was greater than 30 µM each time.

With `FC(F)(F)c1ccc(Nc2nnnc3ccccc23)cc1`, the concentration for half-maximal inhibition (IC50) in assay [1] and in assay [2] was greater than 30 µM each time.

For the compound `CCN(CC)CCCNc1ccnc2cc3ccccc3cc12`, the half-maximal inhibitory concentration (IC50) in assay [1] and in assay [2] was greater than 30 µM in each case.

In the case of `CCOc1ccc2c(c1)CN(Cc1ccc(Cl)cc1)CO2`, the IC50 in assay [1] and in assay [2] was greater than 30 µM throughout.

As for `O=C(CSc1ccc2nnc(-c3cccc(F)c3)n2n1)Nc1ccc2c(c1)OCO2`, the IC50 in assay [1] and in assay [2] was greater than 30 µM in each case.

As to `CCOc1cc2c(cc1OCC)C(c1cc(Cl)c(O)c(OCC)c1)NCC2` (stereo not given), the IC50 in assay [1] and in assay [2] was greater than 30 µM each time.

Consider `COc1ccc(-c2nc(NC(=O)CS(=O)(=O)c3ccc(F)cc3)sc2C)cc1`, for which the half-maximal inhibitory concentration (IC50) in assay [1] and in assay [2] was greater than 30 µM throughout.

Take `CCOc1ccccc1CN1CCc2nc3cc(C(C)(C)C)nn3c(O)c2C1`: the IC50 in assay [1] and in assay [2] was greater than 30 µM throughout.

Consider `COc1ccc2nc(C)cc(Nc3ccccc3O)c2c1`, for which the IC50 in assay [1] and in assay [2] was greater than 30 µM in each case.

In the case of `COc1cccc(C(=O)NC(c2ccc(C)cc2)c2cc(Cl)c3cccnc3c2O)c1` (stereo not given), the IC50 in assay [1] and in assay [2] was greater than 30 µM in each case.

As to `CCCOCc1cc(CN2CCN(c3cccc(Cl)c3)CC2)c(O)c2ncccc12`, the half-maximal inhibitory concentration (IC50) in assay [1] and in assay [2] was greater than 30 µM each time.

Take `CCOC(=O)c1ccc2nc(-c3ccccc3)cc(O)c2c1`: the IC50 in assay [1] and in assay [2] was greater than 30 µM each time.

As to `CN(C)c1ccc(N2C(N)=NC(N)=NC2(C)C)cc1`, the IC50 (usually the concentration needed to halve the response being measured) was greater than 30 µM in assay [1] and 28.9 µM in assay [2].

Take `Clc1cc(Br)ccc1-c1ccc(CNCC2CCNCC2)o1`: the concentration for half-maximal inhibition (IC50) in assay [1] and in assay [2] was greater than 30 µM in each case.

Regarding `CCCc1c(C)nc2ccccc2c1O`, the IC50 in assay [1] and in assay [2] was greater than 30 µM in each case.

`COc1ccc(C2c3ccc4ccccc4c3Oc3ncn(CCCN(C)C)c(=N)c32)cc1` (stereo not given): the IC50 in assay [1] and in assay [2] was greater than 30 µM in each case.

With `CNCCCNc1ccnc2cc(Cl)ccc12`, the 50% inhibitory concentration (IC50) in assay [1] and in assay [2] was greater than 30 µM in each case.

Regarding `CCOC(=O)c1cn(CC)c2cc(N3CCCCC3)c(F)cc2c1=O`, the IC50 in assay [1] and in assay [2] was greater than 30 µM each time.

As to `CCCc1cc(O)c2c3c(c(=O)oc2c1)CN(C)CC3`, the IC50 in assay [1] and in assay [2] was greater than 30 µM in each case.

With `CC(C)(C)c1ccc2c(c1)CN(Cc1ccc(Cl)cc1)CO2`, the results for the 50% inhibitory concentration (IC50) in assay [1] and in assay [2] were greater than 30 µM and 20.4 µM, respectively.
